Laboratory results taken from patent US9663496B2, “AMPK-activating heterocyclic compounds and methods for using the same” (Rigel Pharmaceuticals, Inc., priority 2010, dated 2017).

Target: AMPK
Experiment: AMPK activation, enzyme-linked immunosorbent assay
Assay type: biochemical
Details: EC50 for AMPK activation, ELISA
Procedure, shortened: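 Test compounds were added, and kinase activation was then detected by immunoassay following established kit procedures.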

| SMILES | EC50 [nM] |
| --- | --- |
| N#Cc1ccc(OC2CCN(C(=O)c3ccc(C(=O)NC4CCN(Cc5ccc(N6CCCC6)cc5)CC4)cn3)CC2)cc1 [Compound 336, 6-(4-(4-cyanophenoxy)piperidine-1-carbonyl)-N-(1-(4-(pyrrolidin-1-yl)benzyl)piperidin-4-yl)nicotinamide] | < 500 |
| O=C(NC1CCN(Cc2ccccc2)CC1)c1ccc(C(=O)NC2CCN(Cc3ccccc3)CC2)nc1 [Compound 264, N2,N5-bis(1-benzylpiperidin-4-yl)pyridine-2,5-dicarboxamide] | 5000 to 10000 |
| O=C(Nc1ccc(-c2ccccc2)cc1)c1ccc(C(=O)N2CCN(Cc3ccc(F)cc3)CC2)cn1 [Compound 11] | < 500 |
| CS(=O)(=O)c1ccc(OC2CCN(C(=O)c3ccc(C(=O)Nc4ccc(Oc5ccc(F)cc5)nc4)cn3)CC2)cc1 [Compound 235, N-(6-(4-fluorophenoxy)pyridin-3-yl)-6-(4-(4-(methylsulfonyl)phenoxy)piperidine-1-carbonyl)nicotinamide] | < 500 |
| CS(=O)(=O)c1ccc(OC2CCN(C(=O)c3ccc(C(=O)NC4CCN(Cc5cc(F)cc(F)c5)CC4)cn3)CC2)cc1 [Compound 236, N-(1-(3,5-difluorobenzyl)piperidin-4-yl)-6-(4-(4-(methylsulfonyl)phenoxy)piperidine-1-carbonyl)nicotinamide] | < 500 |
| COc1ccc(C(=O)C2CCN(C(=O)c3ccc(C(=O)N[C@H]4CC[C@@H](Oc5cc(F)cc(F)c5)CC4)nc3)CC2)cc1 [Compound 300, N-((cis)-4-(3,5-difluorophenoxy)cyclohexyl)-5-(4-(4-methoxybenzoyl)piperidine-1-carbonyl)picolinamide] | < 500 |
| N#Cc1ccc(CN2CCC(NC(=O)c3ccc(C(=O)N4CCCC(Oc5ccc(C#N)cc5)C4)cn3)CC2)cc1 (stereo not drawn) [Compound 137, N-(1-(4-cyanobenzyl)piperidin-4-yl)-5-(3-(4-cyanophenoxy)piperidine-1-carbonyl)picolinamide] | < 500 |
| N#Cc1ccc(CN2CCC(NC(=O)c3cnc(C(=O)N4CCC(C(=O)c5ccc(N6CCCC6)cc5)CC4)cn3)CC2)cc1 [Compound 219, N-(1-(4-cyanobenzyl)piperidin-4-yl)-5-(4-(4-(pyrrolidin-1-yl)benzoyl)piperidine-1-carbonyl)pyrazine-2-carboxamide] | < 500 |
| O=C(Nc1ccc(Oc2ccc(F)cc2)nc1)c1ccc(C(=O)N2CCC(Oc3ccc(F)cc3F)CC2)nc1 [Compound 343, 6-(4-(2,4-difluorophenoxy)piperidine-1-carbonyl)-N-(6-(4-fluorophenoxy)pyridin-3-yl)nicotinamide] | < 500 |
| CS(=O)(=O)c1ccc(OC2CCN(C(=O)c3ccc(C(=O)NC4CCN(Cc5ccc(N6CCCC6)cc5)CC4)cn3)CC2)cc1 [Compound 230, 6-(4-(4-(methylsulfonyl)phenoxy)piperidine-1-carbonyl)-N-(1-(4-(pyrrolidin-1-yl)benzyl)piperidin-4-yl)nicotinamide] | 500 to 1000 |
| N#Cc1ccc(O[C@H]2CC[C@@H](NC(=O)c3ccc(C(=O)N4CCC(Oc5cccc(NC(=O)C6CC6)c5)CC4)nc3)CC2)cc1 [Compound 434, N-((cis)-4-(4-cyanophenoxy)cyclohexyl)-6-(4-(3-(cyclopropanecarboxamido)phenoxy)piperidine-1-carbonyl)nicotinamide] | < 500 |
| CN1CCN(c2ccc(C(=O)C3CCN(C(=O)c4ccc(C(=O)NC5CCN(Cc6ccc(C#N)cc6)CC5)cn4)CC3)cc2)CC1 [Compound 243, N-(1-(4-cyanobenzyl)piperidin-4-yl)-6-(4-(4-(4-methylpiperazin-1-yl)benzoyl)piperidine-1-carbonyl)nicotinamide] | < 500 |
| CS(=O)(=O)c1ccc(C(=O)C2CCN(C(=O)c3ccc(C(=O)NC4CCN(Cc5ccc(C#N)cc5)CC4)cn3)CC2)cc1 [Compound 221, N-(1-(4-cyanobenzyl)piperidin-4-yl)-6-(4-(4-(methylsulfonyl)benzoyl)piperidine-1-carbonyl)nicotinamide] | 1000 to 5000 |
| CS(=O)(=O)c1ccc(OC2CCN(C(=O)c3ccc(C(=O)NC4CCN(Cc5cccc(OC(F)(F)F)c5)CC4)nc3)CC2)cc1 [Compound 242, 5-(4-(4-(methylsulfonyl)phenoxy)piperidine-1-carbonyl)-N-(1-(3-(trifluoromethoxy)benzyl)piperidin-4-yl)picolinamide] | < 500 |
| N#Cc1ccc(CN2CCC(NC(=O)c3ccc(C(=O)N4CCC(C(=O)c5cccs5)CC4)cn3)CC2)cc1 [Compound 419, N-(1-(4-cyanobenzyl)piperidin-4-yl)-5-(4-(thiophene-2-carbonyl)piperidine-1-carbonyl)picolinamide] | < 500 |
| N#Cc1ccc(CN2CCC(NC(=O)c3ccc(C(=O)N4CCCCC4Cc4ccc(F)cc4)cn3)CC2)cc1 (stereo not drawn) [Compound 153, N-(1-(4-cyanobenzyl)piperidin-4-yl)-5-(2-(4-fluorobenzyl)piperidine-1-carbonyl)picolinamide] | 1000 to 5000 |
| O=C(NC1CCN(Cc2ccc(N3CCCC3)cc2)CC1)c1ccc(C(=O)N2CCC(C(=O)c3ccc(N4CCCC4)cc3)CC2)nc1 [Compound 444, 6-(4-(4-(pyrrolidin-1-yl)benzoyl)piperidine-1-carbonyl)-N-(1-(4-(pyrrolidin-1-yl)benzyl)piperidin-4-yl)nicotinamide] | < 500 |

| SMILES | EC50 [nM] |
| --- | --- |
| COc1ccc(CN2CCC(NC(=O)c3ccc(C(=O)N4CCC(Oc5ccc(S(C)(=O)=O)cc5)CC4)cn3)CC2)cc1 [Compound 202, N-(1-(4-methoxybenzyl)piperidin-4-yl)-5-(4-(4-(methylsulfonyl)phenoxy)piperidine-1-carbonyl)picolinamide] | < 500 |
| O=C(NC1CCN(Cc2ccc(OC(F)(F)F)cc2)CC1)c1ccc(C(=O)N2CCC(Oc3ccc(C(=O)C4CC4)cc3)CC2)nc1 [Compound 455, 6-(4-(4-(cyclopropanecarbonyl)phenoxy)piperidine-1-carbonyl)-N-(1-(4-(trifluoromethoxy)benzyl)piperidin-4-yl)nicotinamide] | < 500 |
| O=C(c1ccc(C(=O)N2CCN(Cc3ccc(F)cc3)CC2)nc1)N1CCN(Cc2ccc(F)cc2)CC1 [Compound 3, pyridine-2,5-diylbis((4-(4-fluorobenzyl)piperazin-1-yl)methanone)] | 500 to 1000 |
| CS(=O)(=O)c1ccc(OC2CCN(C(=O)c3ccc(C(=O)NC4CCN(Cc5ccc(N6CCCC6)cc5)CC4)nc3)CC2)cc1 [Compound 208, 5-(4-(4-(methylsulfonyl)phenoxy)piperidine-1-carbonyl)-N-(1-(4-(pyrrolidin-1-yl)benzyl)piperidin-4-yl)picolinamide] | < 500 |
| N#Cc1ccc(CN2CCC(NC(=O)c3ccc(C(=O)N4CCC(C(=O)c5ccc(F)cc5F)CC4)cn3)CC2)cc1 [Compound 271, N-(1-(4-cyanobenzyl)piperidin-4-yl)-5-(4-(2,4-difluorobenzoyl)piperidine-1-carbonyl)picolinamide] | < 500 |
| COc1ccc(CN2CCC(NC(=O)c3ccc(C(=O)N4CCC(C(=O)c5ccc(S(C)(=O)=O)cc5)CC4)nc3)CC2)cc1 [Compound 223, N-(1-(4-methoxybenzyl)piperidin-4-yl)-6-(4-(4-(methylsulfonyl)benzoyl)piperidine-1-carbonyl)nicotinamide] | 1000 to 5000 |
| CC(=O)Nc1ccc(OC2CCN(C(=O)c3ccc(C(=O)NC4CCN(Cc5cccc(OC(F)(F)F)c5)CC4)cn3)CC2)cc1 [Compound 428, 6-(4-(4-acetamidophenoxy)piperidine-1-carbonyl)-N-(1-(3-(trifluoromethoxy)benzyl)piperidin-4-yl)nicotinamide] | 500 to 1000 |
| N#Cc1ccc(O[C@H]2CC[C@@H](NC(=O)c3ccc(C(=O)N4CCN(Cc5ccc(F)cc5)CC4)cn3)CC2)cc1 [Compound 150, N-(cis-4-(4-cyanophenoxy)cyclohexyl)-5-(4-(4-fluorobenzyl)piperazine-1-carbonyl)picolinamide] | < 500 |
| O=C(Nc1ccc(Oc2ccc(F)cc2)nc1)c1ccc(C(=O)N2CCC(C(=O)c3ccc(F)c(F)c3)CC2)cn1 [Compound 330, 5-(4-(3,4-difluorobenzoyl)piperidine-1-carbonyl)-N-(6-(4-fluorophenoxy)pyridin-3-yl)picolinamide] | 500 to 1000 |
| N#Cc1ccc(CN2CCC(NC(=O)c3ccc(C(=O)N4CCC(Oc5ccc(SC(F)(F)F)cc5)CC4)nn3)CC2)cc1 [Compound 436, N-(1-(4-cyanobenzyl)piperidin-4-yl)-6-(4-(4-(trifluoromethylthio)phenoxy)piperidine-1-carbonyl)pyridazine-3-carboxamide] | < 500 |
| C[S+]([O-])c1ccc(C(=O)C2CCN(C(=O)c3ccc(C(=O)NC4CC[N+]([O-])(Cc5ccc(C#N)cc5)CC4)nc3)CC2)cc1 (stereo not drawn) [Compound 374, 1-(4-cyanobenzyl)-4-(5-(4-(4-(methylsulfinyl)benzoyl)piperidine-1-carbonyl)picolinamido) piperidine 1-oxide] | > 10000 |
| CS(=O)(=O)c1ccc(OC2CCN(C(=O)c3cnc(C(=O)NC4CCN(Cc5ccc(C#N)cc5)CC4)cn3)CC2)cc1 [Compound 218, N-(1-(4-cyanobenzyl)piperidin-4-yl)-5-(4-(4-(methylsulfonyl)phenoxy)piperidine-1-carbonyl)pyrazine-2-carboxamide] | < 500 |
| CC(=O)Nc1cccc(OC2CCN(C(=O)c3ccc(C(=O)NC4CCN(Cc5ccc(F)cc5)CC4)cn3)CC2)c1 [Compound 413, 6-(4-(3-acetamidophenoxy)piperidine-1-carbonyl)-N-(1-(4-fluorobenzyl)piperidin-4-yl)nicotinamide] | 1000 to 5000 |
| COc1ccc(C(=O)C2CCN(C(=O)c3ccc(C(=O)NCCOc4ccc(F)cc4)nc3)CC2)cc1 [Compound 305, N-(2-(4-fluorophenoxy)ethyl)-5-(4-(4-methoxybenzoyl)piperidine-1-carbonyl)picolinamide] | < 500 |
| COc1ccc(OC2CCN(C(=O)c3ccc(C(=O)N[C@H]4CC[C@@H](Oc5ccc(OC)cc5)CC4)nc3)CC2)cc1 [Compound 186, N-((cis)-4-(4-methoxyphenoxy)cyclohexyl)-5-(4-(4-methoxyphenoxy)piperidine-1-carbonyl)picolinamide] | < 500 |
| COc1ccc(C(=O)C2CCN(C(=O)c3ccc(C(=O)N(C)C4CCN(Cc5ccc(C#N)cc5)CC4)cn3)CC2)cc1 [Compound 482, N-(1-(4-cyanobenzyl)piperidin-4-yl)-6-(4-(4-methoxybenzoyl)piperidine-1-carbonyl)-N-methylnicotinamide] | < 500 |
